Measurements taken from patent publication US5830903A, “Triazole substituted quinoline derivatives for gastrointestinal treat-treatment” (Alkaloida Chemical Co., Ltd., priority 1993, dated 1998).
Like-named read-outs stand apart in the source and are kept apart here. Marks after values point to notes of the source that are not given here.

Tests used:
[1] = tested on: lesions caused by intomethacin; assay: Indomethacin-induced gastric lesions; format: in vivo, female OFA-rats; conditions: Rattus norvegicus, po, 6 h, read-out: ED50 mg/kg (p.o.)
Procedure: The compounds were administered in a volume of 0.5 ml/100 g in a suspension prepared in water with 2-4% Tween-80. After 6 hours the animals were over-anesthesized and their stomachs were opened along the greater curvature. The preparations were investigated by stereomicroscopy using an 8-fold enlargement. The number, size and incidence of erosions and ulcers was noted and compared with the control group treated with the carrier only.
The size of the ulcers was determined on the basis of the following score:
1: ulcer or erosion of the size of 1-2 mm;
2: ulcer or erosion of the size of 2-3 mm;
3: ulcer or erosion of the size of 3-4 mm;
4: ulcer longer than 4 mm;
5: ulcer longer and broader than 4 mm.
The ED50 values were calculated on the basis of ulcer-indexes:
ulcer index=/severeity of lesion x number of lesions/number of animals /n/

[2] = tested on: histamine stimulated hydrochlorid acid secretion; assay: Histamine stimulated gastric acid secretion in Shay rats; format: in vivo; conditions: histamine alone 10 mg/kg s.c.
Procedure: The test substances were added on the course of operation intra-duodenally. Immediately after operation each rat obtained 0.50 ml s.c. of a physiological salt solution for hydration. After 4 hours the rats were over-anesthesized, the stomach liquid was collected, centrifugated and the volume determined. […] Measurement of stimulated secretion of gastric acid was also carried out according to the above method.

[3] = tested on: lesions caused by the NSAID naproxen; assay: Naproxen-induced gastric erosions, test substance 1 hour after naproxen; format: in vivo, WISTAR rats; conditions: naproxen alone 75 mg/kg po., n = 7
Procedure: (§1) Administration of the test substances followed 1 hour after injection. After 4 hours the animals were over-anesthesized with ether and the changes (erosions) were evaluated as in Example I.1. The size of the lesions was characterized by way of the ulcer index.

[4] = tested on: lesions induced with hydrochloric acid and ethanol; assay: Gastric haemorrhages induced by hydrochloric acid in ethanol (cytoprotection); format: in vivo, female rats; conditions: for average length of haemmorrhages, change in %: treated vs control; for protection against hydrochloric acid/ethanol lesions (in words): 100 mg/kg
Procedure: The volume of treatment was 0.5 ml/100 g. […] The average degree of haemorrhages of the treated groups was compared to the control groups treated with the vehicle only. Number of animals was 6-18 in each group.

[5] = tested on: ulcers induced by reserpine; assay: Reserpine induced ulcers; format: in vivo, female OFA rats; conditions: 40 mg/kg p.o.; reserpine 5 mg/kg s.c.; 18 h
Procedure: Female OFA rats of 130-160 g weight, starved for 24 hours, were treated at the same time perorally with 40 mg/kg doses of the substances to be tested and with 5 mg/kg s.c. doses of reserpine. After 18 hours the animals were over-anesthesized and the removed stomachs were investigated under stereomicroscope using a 8-fold enlargement. The number of ulcers was counted and their size was evaluated using 0-0.5-1-2-4-8-16-32 scores. The number of animals was 5 for each dose.

[6] = tested on: lesions caused by the NSAID piroxicam; assay: Piroxicam-induced gastric erosions, test substance 1 hour after piroxicam; format: in vivo, WISTAR rats; conditions: piroxicam alone 60 mg/kg po., n = 7
Procedure: as §1

[7] = tested on: stress ulcer caused by immersion; assay: Stress ulcer caused by immersion; format: in vivo, Wistar rats; conditions: for erosion inhibition % / erosion ulcus-index mm / hyperemia inhibition % / hyperemia ulcer-index mm: n = 7
Procedure: 30 minutes after peroral treatment with the test substance, […]. After seven hours the glandular lesions appearing in the stomach were evaluated according to the score described in Example I.1.

[8] = tested on: alcohol induced increase of gastric glandular capillary permeability; assay: Alcohol induced increase of gastric glandular capillary permeability; format: in vivo, rats; conditions: 100% ethanol alone
Procedure: After 13 minutes 1 ml of 100% ethanol was added perorally and after further 2 minutes the stomachs were removed and their weights measured. […]

[9] = 60 min before 20 mg/kg indomethacin, from ulcer index, confidence limits 95%
[10] = 20.0 mg/kg p.o., control 61.3 ± 9.8 (substance 6, n = 6), 80.4 ± 8.2 (substance 11, n = 12)

`c1ccc2nc(-n3cncn3)ccc2c1` [Substance 5, 2-(1H-1,2,4-triazole-1-yl)-quinoline] was tested, and the ED50 [1, 9] was 38 mg/kg.
For `Cc1cc(-n2cncn2)c2ccccc2n1` [Substance 4, 2-methyl-4-(1H-1,2,4-triazole-1-yl)-quinoline], the ED50 [1, 9] was 44 mg/kg.
`Clc1ccc2c(-n3cncn3)ccnc2c1` [Substance 2, 4-(1H-1,2,4-triazole-1-yl)-7-chloro-quinoline] was tested, and the ED50 [1, 9] was 53 mg/kg.
`Cc1ccc2c(-n3cncn3)ccnc2c1` [Substance 3, 4-(1H-1,2,4-triazole-1-yl)-7-methyl-quinoline] gave an ED50 [1, 9] of 74 mg/kg.
With `Cc1cc(Sc2nc[nH]n2)c2ccccc2n1` [Substance 9, 2-methyl-4-(1H-1,2,4-triazole-3-yl-thio)-quinoline] the ED50 [1, 9] was 47 mg/kg.
With `NCCc1c[nH]cn1` [histamine, reference compound] the “acid secretion μEqu/4^h” value [2] was 1477 ± 80 μEqu/4^h, the “acidity μEqu/ml” value [2] was 237 ± 18 μEqu/ml and the “volume/4^h” value [2] was 6.3 ± 0.7 mL.
With `COc1ccc2cc([C@H](C)C(=O)O)ccc2c1` [naproxen, reference compound] the “ulcus index ± SEM” value [3] was 25.2 ± 6.1.
With `Cc1cc2ccccc2nc1-n1cncn1` [Substance 6, 2-(1H-1,2,4-triazole-1-yl)-3-methyl-quinoline] the “average length of haemmorrhages, treated” value [4, 10] was 48.0 ± 10.3 mm, the “average length of haemmorrhages, change in %” value (shortened to “average length … change in %”) ([4]; 20.0 mg/kg p.o.) was -22% and the “number of ulcers, %change compared with control” value [5] was “+17%”. For the same molecule, the “severity of ulcers, %change compared with control” value [5] was -5%, the ulcers per treated [5] was 5/5 and the ED50 [1, 9] was 29 mg/kg.
With `CN1C(C(=O)Nc2ccccn2)=C(O)c2ccccc2S1(=O)=O` [piroxicam, reference compound] the “ulcus index ± SEM” value [6] was 23.3 ± 6.4.
Work on `CCc1ccc2cc(C)c(-n3cncn3)nc2c1` [Substance 8, 2-(1H-1,2,4-triazole-1-yl)-3-methyl-7-ethyl-quinoline] yielded an ED50 [1, 9] of 40 mg/kg.
For `CN/C(=N/CCSCc1nc[nH]c1C)NC#N` [cimetidine, reference compound], the “protection against hydrochloric acid/ethanol lesions (in words)” value [4] was “practically ineffective”, the “protection against hydrochloric acid/ethanol lesions (in words)” value ([4]; listed as Cimetidin) was “practically inactive” and the “average length of haemmorrhages, treated” value ([4]; 300 mg/kg p.o., n = 16, control 74.8 ± 6.4) was 64.2 ± 12.3 mm. For the same molecule, the “average length … change in %” value ([4]; 300 mg/kg p.o.) was -24%, the erosion inhibition % ([7]; 100 mg/kg p.o.) was 34% and the erosion ulcus-index mm ([7]; 100 mg/kg p.o.) was 24.4 ± 10.0 mm. The hyperemia inhibition % ([7]; 100 mg/kg p.o.) was 21%, the hyperemia ulcer-index mm ([7]; 100 mg/kg p.o.) was 58.1 ± 10.4 mm and the erosion inhibition % ([7]; 200 mg/kg p.o.) was 50%. It also gave an erosion ulcus-index mm ([7]; 200 mg/kg p.o.) of 18.2 ± 11.2 mm, a hyperemia inhibition % ([7]; 200 mg/kg p.o.) of 39% and a hyperemia ulcer-index mm ([7]; 200 mg/kg p.o.) of 48.2 ± 14.6 mm. The “inhibition of hyperemia and erosion (in words)” value ([7]; substance 1 at 50 mg/kg p.o., cimetidine) was “no significant inhibition” and the ED50 [1] was 96 mg/kg.
`Cc1cc2ccccc2nc1Sc1nc[nH]n1` [Substance 11, 2-(1H-1,2,4-triazole-3-yl-thio)-3-methyl-quinoline] was tested, and the “average length of haemmorrhages, treated” value [4, 10] was 51.8 ± 10.0 mm, the “average length … change in %” value ([4]; 20.0 mg/kg p.o.) was -36% and the “number of ulcers, %change compared with control” value [5] was “+67%”. For the same molecule, the “severity of ulcers, %change compared with control” value [5] was “+37%”, the ulcers per treated [5] was 5/5 and the ED50 [1, 9] was 14 mg/kg.
In the case of `CCc1nc(Sc2cc(C)nc3cc(C)cc(C)c23)n[nH]1` [Substance 10, 2,5,7-trimethyl-4-(5-ethyl-1H-1,2,4-triazole-3-yl-thio)-quinoline], the ED50 [1, 9] is reported as 74 mg/kg.
`Cc1cc2ccc(Br)cc2nc1-n1cncn1` [Substance 7, 2-(1H-1,2,4-triazole-1-yl)-3-methyl-7-bromo-quinoline] showed an ED50 [1, 9] of 34 mg/kg.
`CCO` [100% ethanol, reference compound] was tested, and the “Evans-blue” value [8] was 9.45 ± 0.94 µg/g and the “stomach” value [8] was 1.1 ± 0.15 g.
Work on `CCc1nc(Sc2nc3ccccc3cc2C)n[nH]1` [Substance 12, 2-(5-ethyl-1H-1,2,4-triazole-3-yl-thio)-3-methyl-quinoline] yielded an ED50 [1, 9] of 74 mg/kg.
